Columns and labels:
[1] = Drug cytotoxicity in uninfected MDBK cells (MTS/PMS); settings: bovine
BVDV [2] = assay: Protection of MDBK cells from BVDV-induced cytopathicity (CPE reduction, MTS/PMS); format: cell-based, bovine viral diarrhea virus; settings: Bovine viral diarrhea virus isolates and strains, MDBK, 50% CPE reduction; MOI 0.01
BVDV strain NADL = assay: Inhibition of viral release from BVDV-infected MDBK cells (plaque titer); settings: for EC50 / EC90: Bovine viral diarrhea virus isolates and strains, MDBK, 24 h
[3] = Cytotoxicity of test compound in MDBK cells in the absence of viral infection (Example 1); settings: bovine, MDBK cells, uninfected
in vitro [4] = settings: bovine
BVDV [5] = assay: Triple combination checkerboard CPE assay (celgosivir or castanospermine + interferon-α2b + ribavirin), MacSynergy II; format: cell-based, bovine viral diarrhea virus; settings: for EC50: Bovine viral diarrhea virus isolates and strains, read-out: Average Celgosivir EC50
Protocol: Each double or triple combination was performed twice. The combination efficacy data were analyzed using the MacSynergy™ II software program as described herein.
Each double or triple combination was performed twice. The combination efficacy data were analyzed using the MacSynergy™ II software program as described herein. The EC50 for each of celgosivir and castanospermine was calculated from the triple combination studies described in Example 6.
Each double or triple combination was performed twice. The combination efficacy data were analyzed using the MacSynergy™ software program as described herein. The EC50 for interferon-α2b was calculated from the triple combination studies described in Example 6.

[6] = Pharmacokinetics of orally administered celgosivir in rats (plasma castanospermine); format: in vivo, Male Sprague-Dawley rats; settings: normal rats; loperamide 0.35 mg/kg
Protocol: The purpose of this study was to evaluate the effect of an anti-diarrheal agent on the pharmacokinetics (PK) of orally administered celgosivir. In addition, the effect of anti-diarrheal agents on celgosivir PK was investigated. The pharmacokinetics of celgosivir was assessed by following the plasma profile of celgosivir's primary metabolite, castanospermine. By way of background, orally administered celgosivir, although well tolerated in humans, does produce side effects in the gastrointestinal tract, including flatulence and mild to moderate diarrhea. Loperamide hydrochloride, an anti-motility agent that is an active ingredient found in some over-the-counter medications used for symptomatic relief of acute and chronic diarrhea, was investigated for its effect on the PK of orally administered celgosivir. […]
At various time-points after celgosivir administration, blood samples were withdrawn from animals via the tail vein. Plasma samples were generated and stored frozen until analyzed. Plasma samples were analyzed for castanospermine, the major metabolite of celgosivir, using LC/MS. […] Celgosivir pharmacokinetics was assessed by following the plasma concentration of its primary metabolite, castanospermine. Pharmacokinetic parameters were calculated according to a two-compartment model with bio-exponential decay using the method of residuals. […]

BVDV [7] = assay: Double combination checkerboard CPE assay, MacSynergy II and isobolograms; format: cell-based, bovine viral diarrhea virus
Protocol: A double combination assay was performed using MDBK cells infected with BVDV in an inhibition of cytopathic effect (CPE) assay as described in Example 2. The double drug combinations were measured by creating a “checkerboard” of drug concentrations used on cell monolayers in microtiter plates, with one drug being titrated horizontally and the other drug titrated vertically, and each double combination being tested at least twice.
The EC50 values of a first test compound derived while in combination with a second test compound were plotted against the corresponding concentration of the second test compound to create an isobole (dose pair). All of the isoboles were plotted in an isobologram to determine the presence of synergy, antagonism or additivity for the combined test compounds. […] The line connecting the monotherapy EC50 values represents the theoretical additivity effect values for the two compounds.
In addition to generating isobolograms, the checkerboard data was imported into MacSynergy™ II software to graph the observed synergy (or additive or antagonism) volumes for the double combinations tested. Briefly, the calculated additive interactions were subtracted from the experimentally determined values to reveal the corresponding drug concentrations at which a synergistic (indicated by positive % values) or antagonistic (indicated by negative % values) effect is observed. The greater the positive percent volume observed, the greater the synergy between the two compounds. […] In contrast, any value about or less than −25 μM^2% or μM(IU/mL) % is indicative of a significant antagonistic effect. The data presented in Table 5 represent volumes of synergy or antagonism with 95% confidence. The confidence level was calculated using a Bonferroni adjustment as a conservative estimate of significance to statistically evaluate the data.

in vitro [8] = settings: bovine; remark: listed apart in the source

NC(=O)c1ncn([C@@H]2O[C@H](CO)[C@@H](O)[C@H]2O)n1 [Ribavirin, ribavirin, reference compound]
CC50 [1]: ≥ 25 µM
EC50 (BVDV [2]): 4.4 ± 2 µM
EC50 (BVDV strain NADL): 1.5 ± 1 µM
EC90 (BVDV strain NADL): 5.7 ± 2.7 µM
CC50 at 24 h [3]: 250 µM

CCCC(=O)O[C@H]1CN2CC[C@H](O)[C@@H]2[C@@H](O)[C@@H]1O [Celgosivir, [1S-(1α,6β,7α,8β,8aβ)]-octahydro-1,6,7,8-indolizinetetrol 6-butanoate]
CC50 at 24 h (in vitro [4]): > 2000 µM
EC50 (BVDV [5]; Ribavirin 0 μM, Interferon-α2b 0 IU/mL): ~6.5 µM
EC50 (BVDV [5]; Ribavirin 0 μM, Interferon-α2b 0.7 IU/mL): 4.8 ± 0.7 µM
EC50 (BVDV [5]; Ribavirin 0 μM, Interferon-α2b 2.2 IU/mL): 3.9 ± 0.9 µM
EC50 (BVDV [5]; Ribavirin 0 μM, Interferon-α2b 6.7 IU/mL): 1.6 ± 0.6 µM
EC50 (BVDV [5]; Ribavirin 0 μM, Interferon-α2b 20 IU/mL): < 0.4 µM
EC50 (BVDV [5]; Ribavirin 0.37 μM, Interferon-α2b 0.7 IU/mL): 4.3 ± 1 µM
EC50 (BVDV [5]; Ribavirin 0.37 μM, Interferon-α2b 2.2 IU/mL): 2.7 ± 1.3 µM
EC50 (BVDV [5]; Ribavirin 0.37 μM, Interferon-α2b 6.7 IU/mL): 1 ± 0.7 µM
EC50 (BVDV [5]; Ribavirin 0.37 μM, Interferon-α2b 20 IU/mL): < 0.3 µM
EC50 (BVDV [5]; Ribavirin 1.1 μM, Interferon-α2b 0.7 IU/mL): 2.9 ± 0.9 µM
EC50 (BVDV [5]; Ribavirin 1.1 μM, Interferon-α2b 2.2 IU/mL): 2.1 ± 0.2 µM
EC50 (BVDV [5]; Ribavirin 1.1 μM, Interferon-α2b 6.7 IU/mL): < 0.9 µM
EC50 (BVDV [5]; Ribavirin 1.1 μM, Interferon-α2b 20 IU/mL): < 0.3 µM
EC50 (BVDV [5]; Ribavirin 3.3 μM, Interferon-α2b 0.7 IU/mL): < 1 µM
EC50 (BVDV [5]; Ribavirin 3.3 μM, Interferon-α2b 2.2 IU/mL): < 0.3 µM
EC50 (BVDV [5]; Ribavirin 3.3 μM, Interferon-α2b 6.7 IU/mL): < 0.3 µM
EC50 (BVDV [5]; Ribavirin 3.3 μM, Interferon-α2b 20 IU/mL): < 0.3 µM
dose-dependent reduction in EC50 (BVDV [5]; upon the addition of increasing concentrations of interferon-α2b): up to 26 fold
effect of concomitant anti-diarrheal agent on the PK of celgosivir [6]: no significant effect
EC50 (BVDV [2]): 7.7 ± 3 µM
fold reduction of EC50 of celgosivir (BVDV [7]; at 2 μM ribavirin): 3 fold
fold reduction of EC50 of celgosivir (BVDV [7]; at 2.2 μM NM-107): more than 8 fold
EC50 (BVDV strain NADL): 2 ± 1.3 µM
EC90 (BVDV strain NADL): 7.6 ± 2.3 µM
TI (Therapeutic Index, CC50/EC50) (BVDV strain NADL; MOI = 1): >1000
CC50 (in vitro [8]): > 300 µM

Reference: US20060194835A1, “Compositions and methods for treating or preventing flaviviridae infections” (priority 2005, published 2006)
